According to article PMC10746127, “New ψ-Santonin Derivatives from Crossostephium chinense and Their Anti-Proliferative Activities against Leishmania major and Human Cancer Cells A549” (Molecules, 2023):

Legend:
[1] = tested on: human lung cancer cell line A549; experiment: cytotoxicity against A549, MTT method; format: cell-based; settings: for IC50: Homo sapiens, A549, MTT, 72 h, n = 3; for SI2 (selective index, SI to A549): by comparing the cytotoxicity to the Vero cells
Protocol: (§1) The anti-Leishmania major activities of the isolated compounds were evaluated using an MTT assay according to an established protocol. In brief, gradient concentrations of sample solutions in dimethyl sulfoxide (DMSO) and L. major (1 × 10^5 parasite/well) in 100 μL of M199 medium were added to a 96-well plate and then incubated for 72 h at 25 °C. An amount of 100 μL MTT solution was then replaced and incubated overnight. The absorbance of formazan solution in DMSO was measured using a microplate reader at 550 nm. Miltefosine was used as a positive control. The human lung cancer cell line A549 was cultured in 10% FCS-supplemented DMEM. The cytotoxicity assay of isolated compounds was also performed in 96-well plates using the MTT method. Various concentrations of samples in DMSO and A549 (5 × 10^3 cells/well) were cultured in a CO2 incubator for 72 h. The medium was then replaced with 100 μL MTT solution and incubated for 1.5 h in the same condition. The viability was calculated by the absorbance of formazan at 550 nm using a microplate reader. The cytotoxicity assay against the Vero cell line was conducted as in A549, which is mentioned above. Doxorubicin was used as a positive control. The concentration gradient of each activity was essentially set as 100, 50, 25, 12.5, and 6.25 μg/mL (Figures S67–S69).

Leishmania major = experiment: anti-Leishmania major activity, MTT assay; format: cell-based; settings: for IC50: Leishmania major, MTT, 72 h, 25 °C, n = 3, read-out: IC50 L. major; for SI1 (selective index, SI to L. major): by comparing the cytotoxicity to the Vero cells
Protocol: as §1

Vero cells = experiment: cytotoxicity against Vero cell line, MTT method; format: cell-based; settings: Chlorocebus sabaeus, 72 h, n = 3
Protocol: as §1

L. major = tested on: L. major; set-up: method as in PMID 37375252; settings: isolated from the EtOAc layer; cited from earlier work

Molecule	IC50 [1]	SI2 (selective index, SI to A549) [1]	IC50 (Leishmania major)	SI1 (selective index, SI to L. major) (Leishmania major)	IC50 (Vero cells)	cytotoxicity against L. major (L. major)
C=C1C(=O)O[C@H]2C3=C(C)CCC(=O)[C@]3(C)C[C@H](OC(=O)C=C(C)C)[C@@H]12 [Compound 1, Crossostenin A]	2.97 ± 0.58 µM	2.0	0.81 ± 0.26 µM	7.4	5.99 ± 0.76 µM	–
C=C1C(=O)O[C@H]2C3=C(C)CCC(=O)[C@]3(C)C[C@H](OC(=O)/C(C)=C/C)[C@@H]12 [Compound 2, Crossostenin B]	2.3 ± 0.26 µM	3.4	0.96 ± 0.17 µM	8.2	7.84 ± 0.61 µM	–
C=C(C(=O)OC)[C@@H]1[C@@H](OC(=O)/C(C)=C/C)C[C@@]2(C)C(=O)CCC(C)=C2[C@H]1O [Compound 3, Crossostenin C]	5.59 ± 0.72 µM	–	3.75 ± 0.98 µM	–	6.2 ± 1.36 µM	–
C=C(C(=O)OC)[C@@H]1[C@@H](OC(=O)/C(C)=C\C)C[C@@]2(C)C(=O)CCC(C)=C2[C@H]1O [Compound 4, Crossostenin D]	17.1 ± 1.86 µM	–	7.66 ± 2.26 µM	–	17.2 ± 1.36 µM	–
CC(=O)OC1CC2(C)C(=O)CCC(C)=C2C2OC(=O)C(CN3CCCC3C(=O)O)C12 (stereo not drawn) [Compound 5, Crossoseamine C]	17.4 ± 1.86 µM	–	4.72 ± 1.26 µM	–	11.4 ± 0.98 µM	–
CC1=C2C3OC(=O)C(CN4CCCC4C(=O)O)C3CCC2(C)C(=O)CC1 (stereo not drawn) [Compound 6, Crossoseamine D]	83.9 ± 12.1 µM	–	52.6 ± 11.6 µM	–	48.5 ± 4.07 µM	–
CC1=C2C3OC(=O)C(CN4CCCC4C(=O)O)C3C(O)CC2(C)C(=O)CC1 (stereo not drawn) [Compound 7, Crossoseamine E]	58.9 ± 13.6 µM	–	30.8 ± 5.81 µM	–	23.8 ± 2.47 µM	–
COc1cccc2c1C(=O)c1c(O)c3c(c(O)c1C2=O)C[C@@](O)(C(=O)CO)C[C@@H]3O[C@H]1C[C@H](N)[C@H](O)[C@H](C)O1 [doxorubicin, reference compound]	0.45 ± 0.13 µM	–	–	–	3.82 ± 0.79 µM	–
CCCCCCCCCCCCCCCCOP(=O)([O-])OCC[N+](C)(C)C [miltefosine, reference compound]	–	–	18.1 ± 1.69 µM	–	–	–
crossoseamine A	–	–	–	–	–	potent cytotoxicity
crossoseamine B	–	–	–	–	–	potent cytotoxicity
